The values that follow come from patent US5519034A, “Tetraisoquinoline compounds which have useful pharmaceutical utility” (The Boots Company PLC, priority 1991, dated 1996).

pKi: −log10 of the molar value.

The target of assay [1] is T1, D1 dopamine receptors (Rattus norvegicus, UniProt P18901).
T1 construct: Striatal samples from the brains of male Charles River CD rats; from tissue; host or cells: striatum of male Charles River CD rats (washed membrane pellet)
The assay can be described thus: D1 dopamine receptor binding: inhibition of tritiated SCH 23390 binding, rat striatal samples. More on the design: species or system rat (male Charles River CD rats). As to conditions: rat striatum, tritiated SCH 23390, pH 7.4, 37° C., 30 minutes. The protocol: (§1) Striatal samples from the brains of male Charles River CD rats weighing between 140-250 g were homogenised in ice-cold 50 mM Tris-HCl buffer (pH 7.4 when measured at 25° C. for D1 binding assays and pH 7.7 when measured at 25° C. for D2 binding assays) and centrifuged for 10 minutes (at 21,000 g when used for D1binding assay and 40,000 g when used for D2binding assays). The pellet was resuspended in the same buffer, again centrifuged and the final pellet stored at -80° C. Before each test the pellet was resuspended in 50 mM Tris-HCl buffer containing 120 mM NaCl, 5 mM KCl, 2 mM CaCl2 and 1 mM MgCl2 at pH 7.4 for the D1 binding assays and at pH 7.7 with the addition of 6 mM ascorbic acid for the D2 binding assays. Aliquots of this suspension were then added to tubes containing the ligand and either the compound under test or buffer. For the D1 binding assays the ligand was tritiated SCH 23390 and the mixture was incubated at 37° C. for 30 minutes before the incubation was terminated by rapid filtration. For the D2 binding assays the ligand was tritiated (S)-sulpiride and the mixture was incubated at 4° C. for 40 minutes before the incubation was terminated by rapid filtration. Non-specific binding was determined experimentally by the addition of saturating concentrations of chloropromazine or spiroperidol for D1 and D2 receptors respectively.
(§2) The filters were washed with ice-cold Tris-HCl buffer and dried. The filters were punched out on to vials containing scintillation fluid and were left for about 20 hours before being counted by scintillation spectrophotometry. Displacement curves were produced over a range of concentrations of the compound under test and the concentration which gave a 50% inhibition of specific binding (IC50) obtained from the curve. The inhibition coefficient Ki was then calculated using the formula [formula] in which [ligand] is the concentration of the tritiated ligand used and KD is the equilibrium dissociation constant for the ligand.
(§3) In some cases Ki values for D2 binding were estimated from single concentration data by the application of the Langmuir adsorption isotherm equation. These cases are indicated by an "E" in the last two columns of Table I. In other cases it was not possible to determine or estimate the Ki and the Ki value is given as greater than (>) that which would result from the application of the above formula to the highest concentration which displaced ≤50% of the ligand.

Assay [2] concerns the target T2, D2 dopamine receptors (Rattus norvegicus, UniProt P61169).
T2 construct: Striatal samples from the brains of male Charles River CD rats; from tissue; host or cells: striatum of male Charles River CD rats (washed membrane pellet)
The assay is described as follows: D2 dopamine receptor binding: inhibition of tritiated (S)-sulpiride binding, rat striatal samples. The note with it: for pKi: rat striatum, tritiated (S)-sulpiride, pH 7.7, 4° C., 40 minutes, > = from highest concentration which displaced ≤50% of the ligand, read-out: Ki for D2 binding; for Ki for D2 / Ki for D1: ratio to two significant figures. Also on record: species or system rat (male Charles River CD rats). On the procedure: as §1, §2, §3

T1 sequence (P18901 whole entry): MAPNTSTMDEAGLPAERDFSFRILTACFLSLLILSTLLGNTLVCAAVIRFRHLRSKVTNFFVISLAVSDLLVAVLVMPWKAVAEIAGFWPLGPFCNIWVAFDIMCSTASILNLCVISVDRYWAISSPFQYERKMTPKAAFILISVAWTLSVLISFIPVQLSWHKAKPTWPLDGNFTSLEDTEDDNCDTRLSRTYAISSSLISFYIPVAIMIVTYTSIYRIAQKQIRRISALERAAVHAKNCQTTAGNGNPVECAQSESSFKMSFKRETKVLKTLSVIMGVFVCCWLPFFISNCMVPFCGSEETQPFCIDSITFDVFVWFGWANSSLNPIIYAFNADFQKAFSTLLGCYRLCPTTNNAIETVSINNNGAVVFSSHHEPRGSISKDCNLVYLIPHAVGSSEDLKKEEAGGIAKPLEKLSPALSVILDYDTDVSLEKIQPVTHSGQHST
T2 sequence (P61169 whole entry): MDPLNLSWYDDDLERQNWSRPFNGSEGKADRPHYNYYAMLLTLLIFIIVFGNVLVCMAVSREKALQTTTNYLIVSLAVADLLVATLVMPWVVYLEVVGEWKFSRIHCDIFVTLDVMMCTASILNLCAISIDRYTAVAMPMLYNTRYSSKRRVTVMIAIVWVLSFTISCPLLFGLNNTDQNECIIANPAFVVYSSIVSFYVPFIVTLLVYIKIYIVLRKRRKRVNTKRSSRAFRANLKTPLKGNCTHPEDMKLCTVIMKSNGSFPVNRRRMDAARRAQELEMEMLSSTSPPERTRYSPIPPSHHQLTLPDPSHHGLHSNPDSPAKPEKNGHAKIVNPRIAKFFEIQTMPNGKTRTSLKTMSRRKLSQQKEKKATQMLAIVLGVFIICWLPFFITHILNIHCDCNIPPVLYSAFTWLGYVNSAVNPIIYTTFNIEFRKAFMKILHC

One may read the pKi as −log10 of the Ki, conventionally taken in molar units. Consider `CN1CCc2cc(F)c(O)cc2C1C1(c2ccc(Cl)cc2)CCC1` (stereo not drawn) [Example 5, 1-[1-(4-chlorophenyl)cyclobutyl]-6-fluoro-7-hydroxy-2-methyl-1,2,3,4-tetrahydroisoquinoline], for which the pKi in assay [1] is 8.08. In assay [2], the pKi is 4.49 and the “Ki for D2 / Ki for D1” value is on record as 3900.
`CN1CCc2cc(F)c(O)cc2C1C1(c2ccc(Br)cc2)CCC1` (stereo not drawn) [Example 6, 1-[1-(4-bromophenyl)cyclobutyl]-6-fluoro-7-hydroxy-2-methyl-1,2,3,4-tetrahydroisoquinoline] gave a pKi in assay [1] of 8.52. Moreover, in assay [2], the pKi was 4.39 and the “Ki for D2 / Ki for D1” value was 14000.
The compound `CN1CCc2cc(O)c(O)cc2C1C1(c2ccccc2F)CCC1` (stereo not drawn) [Example 7, 1-[1-(2-fluorophenyl)cyclobutyl]-6,7-dihydroxy-2-methyl-1,2,3,4-tetrahydroisoquinoline] gave a pKi in assay [1] of 7.68. In assay [2], the pKi is 5.54 and the “Ki for D2 / Ki for D1” value amounted to 140.
For `CN1CCc2cc(O)c(O)cc2C1C1(c2cccc(C(F)(F)F)c2)CCC1` (stereo not drawn) [Example 8, 6,7-dihydroxy-2-methyl-1-[1-(3-trifluoromethylphenyl)cyclobutyl]-1,2,3,4-tetrahydroisoquinoline] the same measures were 6.51, below 5.30 and above 16.
With `CN1CCc2cc(F)c(O)cc2C1C1(c2ccc(Cl)cc2Cl)CCC1` (stereo not drawn) [Example 9, 1-[1-(2,4-dichlorophenyl)cyclobutyl]-6-fluoro-7-hydroxy-2-methyl-1,2,3,4-tetrahydroisoquinoline], the values for the pKi in assay [1] and in assay [2] were 8.72 and 5.74, respectively. The “Ki for D2 / Ki for D1” value in assay [2] was determined as 950.
For `Cc1cc2c(cc1O)C(C1(c3ccccc3Cl)CCC1)N(C)CC2` (stereo not drawn) [Example 10, 1-[1-(2-chlorophenyl)cyclobutyl]-7-hydroxy-2,6-dimethyl-1,2,3,4-tetrahydroisoquinoline], the pKi in assay [1] is 8.80; in assay [2], 5.60. Besides, the “Ki for D2 / Ki for D1” value in assay [2] is on record as 1600.
`CN1CCc2cc(-c3ccccc3)c(O)cc2C1C1(c2ccccc2Cl)CCC1` (stereo not drawn) [Example 11, 1-[1-(2-chlorophenyl)cyclobutyl]-7-hydroxy-2-methyl-6-phenyl-1,2,3,4-tetrahydroisoquinoline]: the negative-log Ki (pKi) in assay [1] is 6.82. Also, in assay [2], the pKi is 5.46 and the “Ki for D2 / Ki for D1” value is listed as 23.
Regarding `CN1CCc2ccc(O)cc2C1C1(c2ccccc2Cl)CC1` (stereo not drawn) [Example 12, 1-(1-(2-chlorophenyl)cyclopropyl)-7-hydroxy-2-methyl-1,2,3,4-tetrahydroisoquinoline], the pKi is 8.85 in assay [1] and 6.15 in assay [2]. The “Ki for D2 / Ki for D1” value in assay [2] is given as 510.
Regarding `CN1CCc2cc(O)c(O)cc2C1C1(c2ccc(Cl)cc2)CC1` (stereo not drawn) [Example 13, 1-[1-(4-chlorophenyl)cyclopropyl]-6,7-dihydroxy-2-methyl-1,2,3,4-tetrahydroisoquinoline], in assay [1], the pKi is 7.36. For the same compound, in assay [2], the pKi is 5.43 and the “Ki for D2 / Ki for D1” value amounted to 84.
As to `CN1CCc2cc(O)c(O)cc2C1C1(c2ccc(Cl)cc2)CCCC1` (stereo not drawn) [Example 14, 1-[1-(4-chlorophenyl)cyclopentyl]-6,7-dihydroxy-2-methyl-1,2,3,4-tetrahydroisoquinoline], the pKi in assay [1] is 6.92; in assay [2], 5.32. Besides, the “Ki for D2 / Ki for D1” value in assay [2] was 40.
`CN1CCc2cc(O)c(O)cc2C1C1(c2ccccc2)CCCC1` (stereo not drawn) [Example 15, 6,7-dihydroxy-2-methyl-1-(1-phenylcyclopentyl)-1,2,3,4-tetrahydroisoquinoline] had a pKi in assay [1] of 6.70. In assay [2], the pKi is below 5.30 and the “Ki for D2 / Ki for D1” value is given as above 25.
In the case of `CN1CCc2cc(O)c(O)cc2C1C1(c2ccc(Cl)cc2)CCCCC1` (stereo not drawn) [Example 16, 1-[1-(4-chlorophenyl)cyclohexyl]-6,7-dihydroxy-2-methyl-1,2,3,4-tetrahydroisoquinoline], the pKi in assay [1] was 6.74. In addition, in assay [2], the pKi is 5.49 and the “Ki for D2 / Ki for D1” value came out at 18.
